In data set [1] the test system is SET-2, HEL92.1.7, MV4-11, NCI-H1975 and DU145 cells. The experiment in a line: Cell viability assay (AlamarBlue, 72 h), group of JAK/STAT-dependent tumor cell lines. The data set is classed as cell-based, human. As for the experimental part:
SET-2, HEL92.1.7, MV4-11, NCI-H1975 and DU145 cells were treated with ganetespib or 17-AAG over a broad dose range (0.0001 to 1 μM) for 72 h and cell viability assessed by Alamar blue staining.
All cell lines were obtained from the ATCC (Rockville, Md., USA), with the exception of SET-2 cells which were purchased from the German Collection of Microorganisms and Cell Cultures (DSMZ, Germany). Cells were maintained and cultured according to standard techniques at 37° C. in 5% (v/v) CO2 using culture medium recommended by the supplier.
Cells were grown in 96-well plates based on optimal growth rates determined empirically for each line. Twenty-four hours after plating, cells were dosed with the indicated compound or DMSO (0.3%) for 72 h. AlamarBlue (Invitrogen, Carlsbad, Calif., USA) was added (10% v/v) to the cells, and the plates were incubated for 3 h and subjected to fluorescence detection (Ex=545 nm, Em=600 nm) in a SpectraMax Plus 384 microplate reader (Molecular Devices, Sunnyvale, Calif., USA). Data are normalized to percent of control, with IC50 values based on a four-parameter logistic dose response curve (model 205) using XLfit version 5.1 from IDBS (Guildford, U.K.).
Background: Resazurin is reduced to fluorescent resorufin, in cell work by metabolically active cells.

Data set [2] has as its system JAK2 signaling in DU145 cells. Put plainly: Western blot of JAK/STAT proteins in DU145 cells. In kind it is cell-based, human. Here is the method: DU145 cells were dosed with graded concentrations of ganetespib for 24 h and cell lysates subject to western blot to determine JAK/STAT and target protein levels using the antibodies indicated.
DU145 cells were treated with DMSO (control, C), 15 nM, 60 nM or 240 nM ganetespib for either 24 or 48 h and lysates probed by western blot with the indicated antibodies.
(§1) Cells were disrupted in lysis buffer (CST) and solubilized in 2% SDS. Xenograft tumors (average volume of 100-200 mm3) were excised, cut in half, and flash frozen in liquid nitrogen. Each tumor fragment was lysed in 0.5 mL of lysis buffer using a FastPrep-24 homogenizer and Lysing Matrix A (MP Biomedicals, Solon, Ohio, USA) and lysates clarified by centrifugation. Equal amounts of proteins were resolved by SDS-PAGE and immunoblotted with indicated antibodies. The antigen-antibody complex was visualized and quantitated using an Odyssey system (LI-COR, Lincoln, Nebr., USA).

For data set [3], the system named is JAK2/STAT signaling in NCI-H1975 cells. The experiment in a line: Western blot of JAK/STAT and Hsp90 client proteins in NCI-H1975 cells. The data set is classed as cell-based, human. Particulars: 24 h. As for the experimental part:
NCI-H1975 cells were dosed with the indicated concentrations of ganetespib for 24 h and their cell lysates analyzed to determine JAK/STAT and Hsp90 client protein levels using the antibodies indicated.
as §1
(In general: In western blotting, separated proteins are transferred to a membrane and probed.)

Data set [4] concerns JAK/STAT signaling in SET-2 cells. The experiment in a line: Western blot of JAK/STAT signaling in SET-2 cells. In kind it is cell-based, human. As to conditions: 24 h. As for the experimental part:
SET-2 cells were dosed with the indicated concentrations of ganetespib or 17-AAG for 24 h and analyzed to determine JAK/STAT protein and target levels using the antibodies indicated.
as §1

Data set [5] relates to phospho-STAT5 and Cdk1 in MV4-11 tumors. The experiment in a line: Pharmacodynamic analysis of MV4-11 xenograft tumors (western blot). In kind it is in vivo, SCID mice. Here is the method:
SCID mice bearing MV4-11 tumors (n=4 mice/group) were treated with vehicle or ganetespib at either 25 mg/kg or 150 mg/kg at the indicated time points between 6 h and 144 h (6 days). Tumors were resected and the levels of p-STATS, Cdk1, Hsp70 and GAPDH were determined by western blot.
as §1
To determine whether these tumor responses correlated with target modulation in vivo, additional mice bearing MV4-11 xenografts were treated with a single dose of vehicle alone or ganetespib at 25 or 150 mg/kg. Tumors were harvested between 6 and 144 hours later and pharmacodynamic analysis was performed by examining the expression levels of phospho-STAT5, Cdk1 and Hsp70 (FIG. 17). In accord with the in vivo tumor growth data, dose-dependent effects on the duration of target inhibition within the tumors were observed. […] While the relatively quick recovery of STAT5 activation should have allowed the tumor to restart growth, the more durable suppression of the cell cycle regulators appeared to have kept the growth of the tumors arrested until the next drug dosing.

Data set [6] can be described thus: Tolerability studies in non-tumor bearing mice. In kind it is in vivo. As to conditions: i.v. As for the experimental part:
For both models, studies were conducted at the highest non-severely toxic doses (NHSTDs) of 150 mg/kg ganetespib one-time per week or 25 mg/kg ganetespib 5×/week for 3 weeks based on prior tolerability studies conducted in non-tumor bearing mice.

In data set [7] the test system is JAK2 dependent signaling in HEL92.1.7 cells. Put plainly: Western blot of JAK/STAT signaling in HEL92.1.7 cells. The data set is classed as cell-based, human. Here is the method:
FIG. 2 compares the more durable ganetespib durable inhibition of JAK/STAT signaling to P6. HEL92.1.7 cells were cultured in the presence of 250 nM Ganetespib or 1000 nM P6 and harvested at the indicated time points. The levels of JAK2, phosphorylated and total STAT3 and STAT5, phospho-AKT, phospho-ERK and GAPDH were determined by western blot.
as §1

With `CC(C)c1cc(-c2nnc(O)n2-c2ccc3c(ccn3C)c2)c(O)cc1O` [ganetespib, 3-(2,4-dihydroxy-5-isopropyl-phenyl)-4-(1-methyl-indol-5-yl)-5-hydroxy-[1,2,4] triazole], the “potency compared with 17-AAG, cell viability” value in data set [1] (each of the lines tested) is listed as “more potent than the ansamycin Hsp90 inhibitor 17-AAG”. Also, the “potency in reducing cellular viability” value in data set [1] (group of human hematological and solid tumor cell lines, 72 h) is given as “low nanomolar potency”. Further, the JAK1 kinase level entry in data set [2] (15-240 nM, 24 or 48 h) was “not targeted for degradation”. Further, in data set [2] (24 h), the “JAK2, phospho-STAT3 and phospho-SHP2 levels” value was “Loss of JAK2, phospho-STAT3 and phospho-SHP2”. Moreover, in data set [3], the “AKT and GSK3β activity” value is “Inactivation of AKT and GSK3β”; the EGFR expression result is listed as “dose dependent decrease in EGFR expression”; the “JAK2 and phosphorylated STAT3 levels” value is “potent degradation of JAK2 and loss of phosphorylated STAT3 in a dose-dependent manner”; the “levels of phosphorylated BAD” value is reported as “concomitant reduction in the levels of phosphorylated BAD”. In data set [4], the “concentration able to destabilize JAK2 sufficiently to result in loss of activated (phosphorylated) STAT3 and STAT5 expression” value amounted to 50 nM. In data set [5] (single 25 mg/kg dose), the “time by which STAT5 activity recovered in tumors” value is at most 24 h, the “time of loss of Cdk1 in tumors” value came out at 24 h, the “time through which Cdk1 expression remained suppressed in tumors” value is “at least 48 hours” and the “time to potent inhibition of STAT5 activity in tumors” value was at most 6 h. Besides, the “duration of repressed STAT5 activation and suppressed Cdk1 expression in tumors” value in data set [5] (single 150 mg/kg dose) is “more than three days”. In addition, in data set [6] (5×/week for 3 weeks), the “highest non-severely toxic dose” value is given as 25 mg/kg. The “highest non-severely toxic dose” value in data set [6] (one-time per week for 3 weeks) came to 150 mg/kg. In data set [7], the “JAK2 and phospho-AKT protein levels” value is “targeted loss of JAK2 and phospho-AKT protein levels”; the “duration of STAT signaling suppression compared to P6” value was “suppressed STAT signaling longer”; the “potency compared to P6, JAK/STAT inhibitory activity” value was “at least four-fold more potent”. Besides, the “JAK2 dependent signaling (phospho-STAT3, phospho-STAT5, ERK signaling)” value in data set [7] (250 nM ganetespib or 1000 nM P6) is “blocked JAK2 dependent signaling”.
